Paper PMC3937006, “Synergism of peptide receptor-targeted Auger electron radiation therapy with anti-angiogenic compounds in a mouse model of neuroendocrine tumors” (EJNMMI Research, 2014)

Tests used:
[1] = system: GLP-1 receptor-expressing tumor cells established from pancreatic tumors of Rip1Tag2 mice; assay type: cell-based, mouse
Description: A nuclei isolation kit (Nuclei EZ Prep Kit, Sigma-Aldrich Chemie Gmbh, Steinheim, Germany) was used to separate and quantify the amount of radioactivity stored in the nuclei. The preparation was done according to the manufacturer's instructions. The GLP-1 receptor-expressing tumor cells were established from pancreatic tumors of Rip1Tag2 mice, as described previously. The cells were seeded at a density of 2 × 10^7 cells in Petri dishes and incubated overnight. Afterward, 25 pmol ^111In-DTPA-exendin-4 (2.5 MBq) was added to the Petri dishes and incubated at 37°C. The internalization was stopped at 2, 4, and 24 h by removing the medium and by washing the cells four times with 5-ml ice-cold phosphate-buffered saline. Ice-cold nuclei EZ lysis buffer (2 ml) was added, and the cells were scraped with a small bladed cell scraper. The cell lysate was transferred to a separate 15-ml centrifuge tube and set on ice for 5 min. To collect the nuclei, the cell lysate was centrifuged three times at 500 g for 5 min at 4°C. The culture medium, the clear supernatant (cytoplasmatic supernatant), and nucleus pellets were measured radiometrically with a γ-counter.

[2] = system: pancreatic neuroendocrine tumors (pNET) of Rip1Tag2 mice; conditions: injection of 28 MBq; cited from earlier work
Text: (§1) We have shown in the Rip1Tag2 mouse model of pancreatic neuroendocrine tumors (pNET) that [Lys^40(Ahx-DTPA-^111In)NH2]-exendin-4 is suitable for molecular imaging of NETs using single-photon emission computed tomography (SPECT). pNETs could be detected down to a size of 1 mm in diameter. In a clinical pilot study, we could localize occult insulinomas that were not detectable using conventional imaging methods.

[3] = system: pancreas, lungs, bowel and kidneys of Rip1Tag2 and C57/Bl6 mice; conditions: dose of 28 MBq; cited from earlier work
Text: as §1

[4] = system: CD31-positive blood vessels in tumors of Rip1Tag2 mice; test: Microvessel density, CD31 immunohistochemistry on tumor sections; assay type: in vivo, mouse; conditions: for microvessel density, CD31-positive blood vessels (median): Rip1Tag2 mice after 7-day therapy, radiopeptide 1.1 MBq, natIn-exendin-4 40 pmol, kinase inhibitor 100 mg/kg p.o.
[5] = system: pancreatic tumors and other organs of Rip1Tag2 mice; conditions: mouse, in vivo; cited from earlier work
Text: Thus, the combination with an anti-angiogenic drug that has a different toxicity profile than the radiopeptide reduces the amount of [Lys^40(Ahx-DTPA-^111In)NH2]-exendin-4 and is a more nephroprotective treatment. This is relevant because kidney ...

[6] = system: tumor β-cells of Rip1Tag2 mice; test: Tumor cell apoptosis, TUNEL assay; assay type: in vivo, mouse; conditions: Rip1Tag2 mice after 7-day therapy, vatalanib study
[7] = system: pancreatic neuroendocrine tumors (pNET) of Rip1Tag2 mice; test: Therapy study, tumor volume in Rip1Tag2 mice; conditions: day 8, radiopeptide 1.1 MBq i.v. once, kinase inhibitor 100 mg/kg p.o. daily for 7 days
[8] = system: pancreatic tumors and other organs of Rip1Tag2 mice; assay type: in vivo, mouse
Description: Male and female Rip1Tag2 mice, 19 to 32 g of weight and 11.6 ± 0.7 weeks old, were stratified according to their age and randomly assigned to the different cohorts. […] Both vatalanib and imatinib were provided by Novartis (Basel, Switzerland). Days (0, 3, 5, and 7 days) after the beginning of vatalanib or imatinib treatment, the mice were injected through the tail vein with 185 kBq (10 ng peptide/2 pmol) [Lys^40(Ahx-DTPA-^111In)NH2]-exendin-4 (^111In-DTPA-exendin-4) in a 100-μl 1% human serum albumin solution diluted in 0.9% NaCl. At 4 h after injection, the mice were sacrificed under isoflurane and CO2 anesthesia. The organs, blood, and tumors were collected, weighed, and the radioactivity in these samples was determined using a γ-counter. The percentage of injected activity (IA)/g tissue was calculated for each tissue.

[9] = system: GLP-1R; test: GLP-1 receptor autoradiography of tumors after vatalanib treatment; assay type: in vivo, mouse; conditions: Rip1Tag2 mice, vatalanib 100 mg/kg p.o. for 4 days, n = 4; 32 pM [125I]-GLP-1; p = 0.98 vs saline control
Description: GLP-1 receptor autoradiography was used to quantify the GLP-1 receptors in the mouse tumors in the presence or absence of vatalanib treatment. The Rip1Tag2 mice were treated with vatalanib as described before for 4 days and sacrificed on day 5. During necropsy, the tumors were snap frozen on dry ice. Tumor sections (20-μm thick) were incubated for 2 h at ambient temperature in the presence of 32 pM [^125I]-GLP-1 (2,000 Ci/mmol). The incubation solution was 170 mM Tris-HCI buffer (pH 8.2) containing 1% bovine serum albumin, bacitracin (40 μg/ml) and MgCl2 (10 mM) to inhibit endogenous proteases. Non-specific binding was determined by adding 100-nM solution of unlabeled GLP-1. The incubated sections were washed twice for 5 min in cold incubation buffer containing 0.25% bovine serum albumin, then in buffer alone, and dried quickly. Finally, the sections were apposed to Biomax MR films (Kodak, Rochester, NY, USA) and exposed for 1 week in X-ray cassettes.
In all the experiments, the autoradiograms were quantified using a computer-assisted image processing system. Tissue standards for iodinated compounds were used for this purpose.

| Molecule | internalized activity accumulated in the nucleus [1] | reduction of the tumor mass [2] [%] | renal toxicity [3] | microvessel density, CD31-positive blood vessels (median) [4] | tumor uptake [5] [% IA/g tumor] | number of apoptotic cells/0.1 mm^2 (median) [6] [cells/0.1 mm^2] | tumor volume treated/volume control (T/C) ratio [7] | effect on radiopeptide uptake in all the other organs ([8]; vatalanib 100 mg/kg p.o. daily up to 7 days) | reduction of radiopeptide uptake in the kidney ([8]; vatalanib 100 mg/kg p.o. daily, within 7 days, p < 0.001) [%] | decrease of specific tumor uptake of radiopeptide ([8]; within the first 5 days of vatalanib treatment) | expression of the GLP-1R on pancreatic tumors by autoradiography [9] | effect of pre-treatment on uptake of the radiopeptide ([8]; imatinib 100 mg/kg p.o. daily, independent of organ or time point (0, 3, 5, 7 days)) | effect on tumor-associated vessels ([4]; imatinib 100 mg/kg p.o. for 7 days) |
| --- | --- | --- | --- | --- | --- | --- | --- | --- | --- | --- | --- | --- | --- |
| [Lys^40(Ahx-DTPA-^111In)NH2]-exendin-4 | less than 5% | 94 | significant renal radiation damage and consequent chronic renal failure | 77 /mm^2 | 287 ± 62 |  |  |  |  |  |  |  |  |
| Clc1ccc(Nc2nnc(Cc3ccncc3)c3ccccc23)cc1 [vatalanib] |  |  |  | 28 /mm^2 |  | 1.7 | 0.26 | unaffected | 29.5 | more than 50% | 14,176 ± 5,958 dgm/min |  |  |
| Cc1ccc(NC(=O)c2ccc(CN3CCN(C)CC3)cc2)cc1Nc1nccc(-c2cccnc2)n1 [imatinib] |  |  |  |  |  |  |  |  |  |  |  | did not affect the uptake | no apparent effect |
